# Assay results published in patent US5968932A, “Method of inhibiting sleep apnea” (Gruenenthal GmbH, priority 1998, dated 1999).
# Assays:
# [1] = system: Sprague-Dawley rats; assay: Subacute repeated-dose (five weeks) intravenous toxicity with four-week recovery study in rats; assay type: in vivo, Sprague-Dawley rats (SPF Slc:SD)
# Method: The subacute repeated-dose intravenous toxicity of Montirelin was investigated in Sprague-Dawley rats treated repeatedly at 0.05, 0.5,5 and 50 mg/kg/day for five weeks, and the reversibility of its toxic effects was also investigated by a four-week recovery study.
# […] SPF Slc:SD rats of both sexes (age: four weeks, body weight: 70.0-81.6 g) were purchased from Shizuoka Agriculture Cooperative Association for Laboratory Animals. During a one-week quarantine/acclimation period, the animals were measured for body weight and observed for any general symptoms, and healthy animals showing normal growth were selected and used in the experiment at the age of five weeks.
# Males and females were used in five groups (including the control group) of 10 animals/sex, and additional 10 animals/sex were added to the control, 0.5 mg/kg and 50 mg/kg groups to investigate the reversibility of the toxic effect of the test substance. All these animals were randomized to each group by weight stratification so that the differences in initial mean body weight were within 2% between groups. At the start of the treatment, the body weight was 116.5-132.9 g for males and 107.0-123.4 g for females.
# The maximal dose was set at […] lower doses were set at 5, 0.5 and 0.05 mg/kg using a common ratio of 1/10. This study also included the vehicle control group.
# Dosing solutions were prepared by dissolving a weighed amount of the test substance in physiological saline at a concentration of 1 W/V % using a volumetric flask. Lower dosing solutions were obtained by successive 10-fold dilution of the initial solution. The respective dosing solution was repeatedly administered intravenously once daily for 35 days into the tail vein at a rate of 0.2 ml/10 sec. using a 1/4 syringe for injection. The treatment was given at a constant volume of 0.5 ml/100 g body weight in all dose groups, and the control group was treated with physiological saline at the same volume in the same manner.
# Clinical signs in all animals were observed daily between two and four hours after dosing according to Irwin's method of comprehensive observational assessment, and the type, severity, onset time and disappearance time of toxic symptoms were recorded. During the recovery period, the clinical observation was performed once daily in the morning in the same manner. The body weight, food consumption and water consumption were measured in all animals three times weekly in the morning throughout the treatment and recovery periods and recorded.
# [2] = system: standard English bulldog test model; assay: English bulldog test model of obstructive sleep apnea (hypersomnolence and sleep disordered breathing), Example 1; assay type: in vivo; conditions: 100 μg/kg i.v.; for Sleep disordered breathing index (SDBI): REM events per REM time/60 min; for Total sleep time (TST): eight hour observation
# Method: Five bulldogs were implanted with subcutaneous electroencephalogram (EEG) electrodes and instrumented with respiratory oscillation belts (Respitrace™) to measure abdominal and ribcage movements and with an ear oximeter to measure oxygen saturation (SaO2). […] Montirelin in a sterile saline vehicle was administered intravenously to the test animals at a dosage of 100 μg/kg. Each test with active substance was preceded by a control day in which only the saline vehicle was administered. The effect of Montirelin on hypersomnolence and sleep disordered breathing was assessed.
# Hypersomnolence was determined by sleep latency and total sleep time. Total sleep time (TST) is expressed as a percentage calculated by dividing the total sleep time in minutes by the total study time in minutes and multiplying the resulting quotient by 100 according to the formula: [formula]
# Sleep latency was defined as the total minutes until the onset of non-REM sleep.
# Sleep disordered breathing was evaluated in terms of a sleep disordered breathing index (SDBI) defined as the total number of rapid eye movement (REM) events divided by a quantity equal to the total REM time divided by 60 minutes according to the formula: [formula] A REM event (apnea) is defined as an incident of decreased or absent respiration and a decrease of 4% or more in the saturated blood oxygen (SaO2) level occurring during REM sleep.
# [3] = system: bulldog with moderately severe obstructive sleep apnea; assay: Dose study in one bulldog with moderately severe obstructive sleep apnea, Example 2; assay type: in vivo; conditions: for non-REM sleep RDI (respiratory disturbance incidents): saline control 6; for Arousal index: saline control 12; for REM sleep RDI (respiratory disturbance incidents): saline control 44; for Lowest O2 saturation: saline control 89; for Mean sleep efficiency: six hours, saline control 39%
# Method: In a further experiment, Montirelin was administered on different days at varying dosage levels to one bulldog with moderately severe obstructive sleep apnea. In this bulldog, a double-blind study was conducted in which saline was administered as a control and four different doses of Montirelin (100 mg/kg, 200 mg/kg, 400 mg/kg and 800 mg/kg) were administered. The dog was studied on four different days at each dose of the active compound. […] The order of different doses of drug or saline control was randomized, and a wash-out period of two days was allowed after study of a particular dose. During the studies, respiratory movement, oxygen saturation and electroencephalogram for sleep state were measured. The number of sleep-disordered breathing events or respiratory disturbance incidents (RDI) per hour was calculated according to the formula given above both for non-rapid eye movement (non-REM) sleep, which occupies the majority of sleep time, and rapid eye movement (REM) sleep. Mean sleep efficiency and arousal index were also determined.
# [4] = system: central nervous system; conditions: known compound, background statement; cited from earlier work
smiles,measurement,setting,value
"C[C@H]1SC[C@@H](C(=O)N[C@@H](Cc2c[nH]cn2)C(=O)N2CCC[C@H]2C(N)=O)NC1=O.O.O.O.O [Montirelin, (3R, 6R) -N-[(6-methyl-5-oxo-3-thiomorpholinyl)carbonyl]-L-histidyl-L-prolinamide tetrahydrate]",Water consumption,"[1]; 5 mg/kg/day or above i.v., from day 2-3 until about week 4",increased in both sexes
same,Day by which polyuria disappeared,[1]; 5 mg/kg/day or higher i.v.,4 to 28 days
same,Time of polyuria peak,"[1]; 5 mg/kg/day or higher i.v., from day 0-3",peaked at about one hour after dosing
same,Transient polyuria,"[1]; 5 mg/kg/day or higher i.v., males and females",almost all males and females showed transient polyuria
same,Mortality,"[1]; 0.05, 0.5, 5 and 50 mg/kg/day i.v., administration and recovery periods",no death occurred
same,Hematological changes relative to normal range,"[1]; 50 mg/kg/day i.v., both sexes",within the range of normal physiological variations
same,"Red blood cell count, hemoglobin and hematocrit","[1]; 50 mg/kg/day i.v., both sexes","increasing tendency in red blood cell count, hemoglobin and hematocrit"
same,Total white blood cell count,"[1]; 50 mg/kg/day i.v., both sexes",decreasing tendency in total white blood cell count
same,Systemic tremor,"[1]; 50 mg/kg/day i.v., both sexes, from day 0",systemic tremor was observed transiently during the injection in both sexes
same,Day by which systemic tremor disappeared,"[1]; 50 mg/kg/day i.v., females",≤ 4 days
same,Day by which systemic tremor disappeared,"[1]; 50 mg/kg/day i.v., males",≤ 6 days
same,Reversibility of observed changes,"[1]; after discontinuing administration, four-week recovery",All observed changes were reversed by discontinuing administration
same,Incidence of hypertrophy of serous cells in the submaxillary gland (histopathology),"[1]; both sexes, all treatment groups, i.v.",showed dose-dependency in both sexes of all treatment groups
same,Food consumption and body weight changes,"[1]; females, i.v.",unremarkable
same,Blood biochemical parameters,[1]; i.v.,No treatment-related abnormalities were observed
same,Gross changes at autopsy,[1]; i.v.,no treatment-related grossly abnormal changes
same,Histopathology of other organs (light microscopy),[1]; i.v.,no remarkable changes were shown at the light microscopic level
same,Liver and kidney electron microscopical examination,[1]; i.v.,nor were there any abnormal changes in the liver or kidney
same,Other hematological parameters,[1]; i.v.,not related to the dose
same,Urinary findings (other than urine volume),[1]; i.v.,unremarkable
same,Other clinical signs,"[1]; i.v., administration and recovery periods",no other remarkable clinical signs
same,Urine volume,"[1]; males and females, 5 mg/kg/day or above i.v., week 2 and 5",increase in urine volume
same,Body weight gain,"[1]; males, particularly 0.5, 5 and 50 mg/kg/day i.v.",body weight gain was suppressed in males
same,Food consumption,"[1]; treated males, versus control males, i.v.",tended to decrease food consumption
same,"Awakening / sleep pattern, result in words",[2]; versus saline control,awaken less frequently and thus exhibit markedly better consolidated sleep patterns
same,Reduction in sleep disordered breathing,[2]; versus saline control,approximately 50%
same,"Sleep depth, result in words",[2]; versus saline control,sleep may be somewhat shallower
same,"Total sleep time, result in words",[2]; versus saline control,only a slight reduction in total sleep time
same,"Sleep disordered breathing index (SDBI), average","[2]; Average of 5 dogs, saline control 15.9 ± 11",8.7 ± 10
same,"Total sleep time (TST), average","[2]; Average of 5 dogs, saline control 20.9 ± 8.3",16.4 ± 8.5%
same,"Sleep latency, average","[2]; Average of 5 dogs, saline control 91.4 ± 14",142 ± 61.4 min
same,Sleep latency (minutes until onset of non-REM sleep),[2]; Test dog 1,47 min
same,Sleep disordered breathing index (SDBI),[2]; Test dog 1,7.2
same,Total sleep time (TST),[2]; Test dog 1,18.5%
same,Sleep latency (minutes until onset of non-REM sleep),[2]; Test dog 2,149 min
same,Sleep disordered breathing index (SDBI),[2]; Test dog 2,8.2
same,Total sleep time (TST),[2]; Test dog 2,17.0%
same,Sleep latency (minutes until onset of non-REM sleep),[2]; Test dog 3,145 min
same,Sleep disordered breathing index (SDBI),[2]; Test dog 3,2.6
same,Total sleep time (TST),[2]; Test dog 3,26.7%
same,Sleep latency (minutes until onset of non-REM sleep),[2]; Test dog 4,150 min
same,Sleep disordered breathing index (SDBI),[2]; Test dog 4,0.0
same,Total sleep time (TST),[2]; Test dog 4,17.0%
same,Sleep latency (minutes until onset of non-REM sleep),[2]; Test dog 5,219 min
same,Sleep disordered breathing index (SDBI),[2]; Test dog 5,25.7
same,Total sleep time (TST),[2]; Test dog 5,3.0%
same,non-REM sleep RDI (respiratory disturbance incidents),[3]; 100 mg/kg i.v.,8 per hour
same,Arousal index,[3]; 100 mg/kg i.v.,16
same,REM sleep RDI (respiratory disturbance incidents),[3]; 100 mg/kg i.v.,53 per hour
same,Lowest O2 saturation,[3]; 100 mg/kg i.v.,92
same,Mean sleep efficiency,[3]; 100 mg/kg i.v.,41%
same,"non-REM sleep-disordered breathing events, result in words","[3]; 200 mg/kg and above, i.v.",significant reduction in non-REM sleep-disordered breathing events
same,non-REM sleep RDI (respiratory disturbance incidents),"[3]; 200 mg/kg i.v., p < 0.05",0 per hour
same,Arousal index,[3]; 200 mg/kg i.v.,7
same,REM sleep RDI (respiratory disturbance incidents),[3]; 200 mg/kg i.v.,70 per hour
same,Lowest O2 saturation,[3]; 200 mg/kg i.v.,86
same,Mean sleep efficiency,[3]; 200 mg/kg i.v.,37%
same,"REM sleep occurrence, result in words","[3]; 400 mg/kg and 800 mg/kg, i.v.",the animal did not enter REM sleep
same,non-REM sleep RDI (respiratory disturbance incidents),[3]; 400 mg/kg i.v.,4 per hour
same,Arousal index,[3]; 400 mg/kg i.v.,12
same,Lowest O2 saturation,[3]; 400 mg/kg i.v.,92
same,Mean sleep efficiency,[3]; 400 mg/kg i.v.,40%
same,non-REM sleep RDI (respiratory disturbance incidents),"[3]; 800 mg/kg i.v., p < 0.05",2 per hour
same,Arousal index,"[3]; 800 mg/kg i.v., p < 0.05",6
same,Lowest O2 saturation,[3]; 800 mg/kg i.v.,93
same,Mean sleep efficiency,[3]; 800 mg/kg i.v.,38%
same,"Dose dependence of non-REM breathing-decline episodes, result in words",[3]; 100 to 800 mg/kg i.v.,dose-dependent reduction in the number of episodes where breathing declines during non-REM sleep
same,"Number of arousals per hour, result in words","[3]; i.v., versus saline",did reduce the number of arousals per hour
same,"Oxyhemoglobin saturation during breathing episodes, result in words","[3]; i.v., versus saline",no effect on oxyhemoglobin saturation during breathing episodes
same,"Sleep efficiency, result in words","[3]; i.v., versus saline",did not affect sleep efficiency
same,"REM sleep RDI, result in words","[3]; lower dose levels, i.v.",there does not appear to have been an impact on REM sleep RDI
same,Central nervous system effect,[4],exhibits central nervous system stimulating effects
